{"source": "patent US20100104625A1", "about": "“BIODEGRADABLE COMPOSITIONS AND MATERIALS” (CORNELL UNIVERSITY, priority 2007, published 2010)", "test": "Sessile contact angle of water on lipid pellet surface", "assay_type": "physicochemical", "details": "pellets fabricated from each lipid", "experimental": "Particle characterization. Particle morphology and size were studied at low voltage (5 kV) using scanning electron microscopy imaging (LEICA 440) after coating with palladium. Surface charge measurements on samples suspended in 1:10 diluted PBS were carried out using a Malvern Zetasizer-Nano ZS (Malvern, UK). A PRECO Hydraulic press (Los Angles, Calif.) was used to make lipid pellets with approximate surface area of 25 mm^2. For contact angle measurements, a ramé-hart contact angle goniometer (100-FO) was used to measure the sessile contact angle of water on a lipid pellet surface. Unless otherwise stated, measurements were taken in triplicate.", "data": [{"smiles": "CCCCCCCC(=O)OCC(=O)COC(=O)CCCCCCC", "note": "[C8]", "values": [{"measurement": "Hydrophobicity by contact angle of water on lipid surfaces", "value": "least hydrophobic"}]}]}
